Reference: patent US20020002171A1, “Materials and methods for killing nematodes and nematode eggs” (priority 2000, published 2002)

Legend:
[1] = system: Meloidogyne incognita; settings: cited from earlier work
[2] = system: C. elegans; test: C. elegans nematode activity assay, 2-fold dilutions from 140 μM, visual evaluation at Day 4 (Example 3); format: in vivo, Caenorhabditis elegans
Description: The eggs were allowed to hatch, and the L1 larvae collected. See The Nematode Caenorhabditis elegans (1988) Cold Spring Harbor Laboratory Press. Using a Matrix Programmable Pipette, the L1s were distributed into 96-well tissue culture plates, 20 L1 in 50 μl NGM per well. Antibiotic/Antimyoticwas added to each well, and 1% by weight E. coli strain HB101. The subject anthelmintic compounds were stored at 5 mM in 100% DMSO. 0.7 μl of compounds 1-31 were added to the left-most column of wells to yield a final concentration of 70 μM in 1.4% DMSO, with 1.4% DMSO only as the control. The compounds were then subjected to 5 more 3-fold dilutions from left to right to yield 6 column concentrations of 70 μM, 23.3 μM, 7.8 μM, 2.6 μM, 0.9 μM, and 0.3 μM. Plates were stored in air-tight Rubbermaid plastic boxes at 20° C. The nematodes had cleared all control wells by day 4, and nematode viability was scored by visual examination under a 100× dissecting microsope on day 5. A visual viability scoring system was used as follows:
The C. elegans nematode activity assay for anthelmintic compounds 32-46 was similar to that described in Example 2 above, except for the following noted differences. The compound concentrations were adjusted to 140 μM and subjected to 2-fold dilutions to yield 140 μM, 70 μM, 35 μM, 17.5 μM, 8.8 μM, 4.4 μM, 2.2 μM, and 1.09 μM.

[3] = system: Caenorhabditis elegans; test: C. elegans L1 nematicidal dose response in 96-well plates, 5 day visual score (Example 2; same procedure for Example 7, Table 3); format: in vivo; design: key to 5 Day Visual Score V1 / 5 Day Visual Score V2 / 5 Day Visual Score V3 / 5 Day Visual Score V4 / 5 Day Visual Score V6 / 5 Day Visual Score V5 / Initial HTS Run Visual Score / Follow-up HTS Run Visual Score: Dead: only stiff L1s (no movement); Dead (L4): worms are dead, but at a later larval stage; majority of worms are L1 (based on size) worms move when plate is tapped; majority of worms are L2 (based on size); majority of worms are L3 (based on size); majority of worms are L4 (based on size); AD: majority of worms are adult; #AD: 5 adult worms or less; B!: sterile (0-25 progeny); B: low broodsize (25-100 progeny); ˜B: moderate broodsize (100-250 progeny); <: reduced broodsize (250-500 progeny); OK: no effect (˜1000+ progeny)
Procedure, shortened: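 L1 larvae, 20 per well in NGM with 1% E. coli HB101 and antibiotic/antimycotic, exposed to six 3-fold dilutions from 70 μM down to 0.3 μM (1.4% DMSO at top). Held at 20° C; viability scored visually under 100× dissecting microscope on day 5.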

[4] = dose response, dilution V1, day 5
[5] = dose response, dilution V4, day 5
[6] = dose response, dilution V5, day 5
[7] = dose response, dilution V6, day 5
[8] = 0.3 μM, C. elegans L1, scored day 5
[9] = 7.8 μM, C. elegans L1, scored day 5
[10] = 23.3 μM, C. elegans L1, scored day 5
[11] = 70 μM, C. elegans L1, scored day 5
[12] = dose response, dilution V3, day 5
[13] = dose response, dilution V2, day 5
[14] = 0.9 μM, C. elegans L1, scored day 5
[15] = 2.6 μM, C. elegans L1, scored day 5

Row | Compound | Follow-up HTS Run % Run [3] [%] | Follow-up HTS Run mOD [3] [mOD] | Initial HTS Run % Run [3] [%] | Initial HTS Run Visual Score [3] | Initial HTS Run mOD [3] [mOD] | 5 Day Visual Score V4 [3, 5] | 5 Day Visual Score V5 [3, 6] | 5 Day Visual Score V6 [3, 7] | 5 Day Visual Score V3 [3, 12] | further results
1 | CC[C@H](C)[C@H]1O[C@]2(CC(O)[C@@H]1C)C[C@@H]1C[C@@H](C/C=C(\C)[C@@H](OC3CC(OC)C(OC4CC(OC)C(O)C(C)O4)C(C)O3)[C@@H](C)/C=C/C=C3\CO[C@@H]4[C@H](O)C(C)=C[C@@H](C(=O)O1)[C@]34O)O2 (stereo partly drawn) [Avermectin B2a] |  |  |  |  |  |  |  |  |  | activity against the root-knot nematode [1]: active
2 | CCCCCCCCOc1ccc2nc(CCSC)[nH]c2c1 [AKC-144] |  |  |  |  |  |  |  |  |  | visual evaluation of viability ([2]; 1.09 μM): OK (no effect (˜1000+ progeny)); visual evaluation of viability ([2]; 2.2 μM): OK (no effect (˜1000+ progeny)); visual evaluation of viability ([2]; 4.4 μM): OK (no effect (˜1000+ progeny)); visual evaluation of viability ([2]; 8.8 μM): OK (no effect (˜1000+ progeny)); visual evaluation of viability ([2]; 17.5 μM): ˜B (moderate broodsize (100-250 progeny)); visual evaluation of viability ([2]; 35 μM): B (low broodsize (25-100 progeny)); visual evaluation of viability ([2]; 70 μM): L4/AD/B
3 | COc1ccc(CNc2nsc(N3CCN(c4ccc(F)cc4)CC3)n2)cc1 [compound 271] | 109 | 175 | 101 | L4/AD/B | 111 | < (reduced broodsize (250-500 progeny)) | OK (no effect (˜1000+ progeny)) | < (reduced broodsize (250-500 progeny)) |  | 5 Day Visual Score V1 [3, 4]: Dead
4 | CCCc1ccc(C(Nc2ccc(-c3ccccc3)cc2)C2CCCCC2=O)cc1 (stereo not drawn) [AKC 132] |  |  |  |  |  |  |  |  |  | 5 Day Visual Score V6 [3, 8]: Dead; 5 Day Visual Score V3 [3, 9]: Dead; 5 Day Visual Score V2 [3, 10]: Dead; 5 Day Visual Score V1 [3, 11]: Dead(L2)
5 | C=CCN(CC=C)c1nc(NCc2c(F)cccc2F)ns1 [compound 300] | 108 | 174 | 108 |  | 119 | OK (no effect (˜1000+ progeny)) | OK (no effect (˜1000+ progeny)) | OK (no effect (˜1000+ progeny)) | < (reduced broodsize (250-500 progeny)) | Follow-up HTS Run Visual Score [3]: L4/AD/B!; 5 Day Visual Score V1 [3, 4]: Dead(L2/L3)
6 | CN(Cc1ccccc1)c1nc(NCc2c(F)cccc2F)ns1 [compound 301] | 127 | 204 | 111 | B!-Few Eggs | 122 | OK (no effect (˜1000+ progeny)) | OK (no effect (˜1000+ progeny)) | OK (no effect (˜1000+ progeny)) | OK (no effect (˜1000+ progeny)) | Follow-up HTS Run Visual Score [3]: B! (sterile (0-25 progeny)); 5 Day Visual Score V2 [3, 13]: < (reduced broodsize (250-500 progeny))
7 | C=CCN(CC=C)c1nc(NCc2ccccc2)ns1 [compound 327] | 106 | 171 | 105 | L2/L3(Dead L3) | 115 |  |  |  |  | 5 Day Visual Score V1 ([3]; dose response, dilution V1, 5 day): Dead; 5 Day Visual Score V2 ([3]; dose response, dilution V2, 5 day): B (low broodsize (25-100 progeny)); 5 Day Visual Score V3 ([3]; dose response, dilution V3, 5 day): ˜B (moderate broodsize (100-250 progeny)); 5 Day Visual Score V4 ([3]; dose response, dilution V4, 5 day): OK (no effect (˜1000+ progeny)); 5 Day Visual Score V5 ([3]; dose response, dilution V5, 5 day): OK (no effect (˜1000+ progeny)); 5 Day Visual Score V6 ([3]; dose response, dilution V6, 5 day): OK (no effect (˜1000+ progeny))
8 | C=CCN(CC=C)c1nc(NCc2ccc(F)cc2F)ns1 [compound 293] | 125 | 201 | 108 | L4 | 119 | OK (no effect (˜1000+ progeny)) | OK (no effect (˜1000+ progeny)) | OK (no effect (˜1000+ progeny)) | OK (no effect (˜1000+ progeny)) | Follow-up HTS Run Visual Score [3]: L4/AD/B!; 5 Day Visual Score V2 [3, 13]: < (reduced broodsize (250-500 progeny))
9 | CCN(Cc1ccccc1)c1nc(N2CCN(c3ccc(F)cc3)CC2)ns1 [compound 237] | 117 | 189 | 133 |  | 146 | < (reduced broodsize (250-500 progeny)) | OK (no effect (˜1000+ progeny)) | OK (no effect (˜1000+ progeny)) | L1 | 5 Day Visual Score V1 [3, 4]: L1; 5 Day Visual Score V2 [3, 13]: L1
10 | CCCCCCCCCCNc1nsc(N(CC(CC)CCCC)CC(CC)CCCC)n1 (stereo not drawn) [compound 278] | 109 | 175 | 112 | Dead | 123 | OK (no effect (˜1000+ progeny)) | OK (no effect (˜1000+ progeny)) | OK (no effect (˜1000+ progeny)) | ˜B (moderate broodsize (100-250 progeny)) | Follow-up HTS Run Visual Score [3]: Dead; 5 Day Visual Score V1 [3, 4]: Dead; 5 Day Visual Score V2 [3, 13]: Dead
11 | Cc1ccc(C(CC(=O)c2ccccc2)Nc2ccc(I)cc2)o1 (stereo not drawn) [AKC 128] |  |  |  |  |  |  |  |  |  | 5 Day Visual Score V6 [3, 8]: OK (no effect (˜1000+ progeny)); 5 Day Visual Score V5 [3, 14]: #AD/˜B; 5 Day Visual Score V4 [3, 15]: L1; 5 Day Visual Score V3 [3, 9]: Dead; 5 Day Visual Score V2 [3, 10]: Dead; 5 Day Visual Score V1 [3, 11]: Dead
12 | Fc1ccc(N2CCN(c3nc(NCc4ccc(C(F)(F)F)cc4)ns3)CC2)cc1 [AKC 135] |  |  |  |  |  |  |  |  |  | 5 Day Visual Score V5 [3, 14]: ˜B (moderate broodsize (100-250 progeny)); 5 Day Visual Score V2 [3, 10]: L1; 5 Day Visual Score V1 [3, 11]: Dead
13 | NCc1ccc(-c2ccccc2)cc1 [AKC-138] |  |  |  |  |  |  |  |  |  | visual evaluation of viability ([2]; 8.8 μM): B (low broodsize (25-100 progeny))
14 | CCCc1ccc(C(CC(=O)c2ccc(C)cc2)Nc2ccc(-c3ccccc3)cc2)cc1 (stereo not drawn) [AKC 133] |  |  |  |  |  |  |  |  |  | 5 Day Visual Score V6 [3, 8]: Dead; 5 Day Visual Score V5 [3, 14]: Dead; 5 Day Visual Score V4 [3, 15]: Dead; 5 Day Visual Score V3 [3, 9]: Dead; 5 Day Visual Score V2 [3, 10]: Dead; 5 Day Visual Score V1 [3, 11]: Dead
